# Where “and” joins values, the source holds several entries; their conditions need not be identical. Identical values can stand only once. Like-named read-outs stand apart in the source and are kept apart here.
# Legend:
# M. bovis BCG [1] = assay: microbe, parasite or virus in culture; assay type: cell-based, Mycobacterium bovis BCG
# M. bovis BCG-pclgR-RFP = assay type: cell-based, Mycobacterium bovis BCG; conditions: 0.25x – 2x MIC90 (controls 10 μM), 24 h
# Mtb H37Rv [2] = conditions: minimum concentration to inhibit growth of Mtb H37RV by 99%; cited from earlier work
# M. bovis BCG [3] = assay type: cell-based, Mycobacterium bovis BCG; conditions: PhA2 2x–4x MIC90BCG, TDZ 80 μM, 24 h
# M. bovis BCG [4] = assay type: cell-based, Mycobacterium bovis BCG; conditions: 24 h
# [5] = tested on: Mab bolletii CCUG 50184-T; assay: MIC against Mab bolletii CCUG 50184-T; assay type: cell-based, Mycobacterium abscessus subsp. bolletii; conditions: for MIC50 Mab bolletii CCUG 50184-T / MIC50: 3 days; for MIC50: CCUG50184, 72 h
# Vero E6 = assay: Cytotoxicity in Vero E6 cells; assay type: cell-based, African green monkey; conditions: 48 h, growth suppressed by 50% vs untreated
# Method: (§1) To each well in a 96-well plate, 50,000 cells in 100 μL media were seeded. Vero E6 and HepG2 cells were incubated overnight in DMEM for cell adherence at 37°C and 5% CO2. The media was removed from the wells and 100 μL solution made up of fresh DMEM media (99 μL) and the test compound (1 μL from a DMSO stock solution that was […] more concentrated than the final concentration in the well) was then added to each well. DMSO content of each well was consistently kept at 0.5 %v/v. Treated plates were incubated for 48 h (5% CO2, 37°C), after which 10 μL of Celltitre 96 Aqueous One Solution was added to each well, without removal of media, and incubated for a further 3 h. Subsequently, absorbance readings were taken at 490 nm on a Tecan GENios Microplate Reader.
# (§2) Cell viability was determined from the expression: Cellviability(%)={[Absorbance(cells+cpd)−Absorbance(cpd)]/[Absorbance(cells+vc)−Absorbance(vc)]}×100% where Absorbance (cells + cpd) = absorbance of wells containing cells and test compound in vehicle (media +0.5% DMSO); Absorbance (cpd) = absorbance of wells containing test compound in vehicle without cells (compound control); Absorbance (cells + vc) = absorbance of wells containing cells in vehicle (vc) only (untreated cells); Absorbance (vc) = absorbance of wells containing vehicle without cells (vehicle control). The percentage viability readings were plotted against log(concentration) on GraphPad Prism (Version 7.0, San Diego, CA) to give a sigmoidal curve, from which IC50, defined as the concentration of the compound that reduced cell viability by 50%, was obtained. At least 3 separate determinations were carried out.
# Mab abscessus ATCC 19977 = assay: MIC against Mab abscessus ATCC 19977; assay type: cell-based, Mycobacterium abscessus subsp. abscessus; conditions: for MIC50 Mab abscessus ATCC 19977 / MIC50: 3 days; for MIC50: ATCC19977, 72 h
# [6] = tested on: Mab massiliense CCUG 48898-T; assay: MIC against Mab massiliense CCUG 48898-T; assay type: cell-based, Mycobacterium abscessus subsp. massiliense; conditions: for MIC50 Mab massiliense CCUG 48898-T / MIC50: 3 days; for MIC50: CCUG48898, 72 h
# HepG2 = assay: Cytotoxicity in HepG2 cells; assay type: cell-based, human; conditions: 48 h, growth suppressed by 50% vs untreated
# Method: as §1, §2
# M. bovis BCG [7] = assay type: cell-based, Mycobacterium bovis BCG
# Mtb H37Rv [8] = assay: MIC by broth microdilution against Mtb H37Rv; assay type: cell-based, Mycobacterium tuberculosis; conditions: incubation 5 days
# M. bovis BCG [9] = assay type: cell-based, Mycobacterium bovis BCG; remark: listed apart in the source
# Mab complex = assay: MIC against Mab complex (summary over the 3 subspecies); assay type: cell-based, Mycobacterium abscessus; conditions: Mycobacteroides abscessus, read-out: MIC90 Mab complex
# clinical isolates of Mab = assay: MIC50 against Mab clinical isolates; assay type: cell-based, Mycobacterium abscessus; conditions: Mycobacteroides abscessus
# M. bovis BCG [10] = conditions: 2x MIC90 over 24 h
# M. bovis BCG [11] = assay type: cell-based, Mycobacterium bovis BCG; conditions: 0.5x to 4x MIC90BCG
# M. bovis BCG [12] = assay type: cell-based, Mycobacterium bovis BCG; conditions: 2x MIC90BCG over 48 h
# M. bovis BCG [13] = assay type: cell-based, Mycobacterium bovis BCG; conditions: 15 μM or 8 μg/mL, equivalent to 230x MIC50
# Mab abscessus = assay: Time-kill kinetics, Mab abscessus; assay type: cell-based, Mycobacterium abscessus subsp. abscessus; conditions: BDQ alone 4x to 32x MIC90 (0.84–6.7 μg/mL)
# [14] = Mycobacterium tuberculosis variant bovis BCG, BCG, M. bovis BCG, broth dilution, growth reduced by 50% vs untreated
# [15] = Mycobacterium tuberculosis variant bovis BCG, BCG, M. bovis BCG, broth dilution, growth reduced by 90% vs untreated
# [16] = Mycobacterium tuberculosis variant bovis BCG, BCG, read-out: MIC90 (Table S1), M. bovis BCG, broth dilution
# [17] = Mycobacterium tuberculosis variant bovis BCG, BCG, read-out: MIC90 BCG, M. bovis BCG
# [18] = 7H9 medium (first value of cell)
# [19] = CA-MHB medium (second value of cell)
# [20] = Mycobacteroides abscessus, 7H9 medium (first value of cell)
# [21] = Mycobacteroides abscessus, CA-MHB medium (second value of cell)
smiles,measurement,setting,value
"CO[C@H]1/C=C/O[C@@]2(C)Oc3c(C)c(O)c4c(O)c(c(/C=N/N5CCN(C)CC5)c(O)c4c3C2=O)NC(=O)/C(C)=C\C=C\[C@H](C)[C@H](O)[C@@H](C)[C@@H](O)[C@@H](C)[C@H](OC(C)=O)[C@@H]1C [RIF, rifampin, reference compound]",MIC90,"M. bovis BCG [1]; Mycobacterium tuberculosis variant bovis BCG, BCG, read-out: MIC90 BCG",0.04 µM and 0.033 µg/mL
same,induction of pclgR promoter activity,M. bovis BCG-pclgR-RFP,No induction
"COc1ccc(C(C#N)(CCCN2CCN(c3ccccc3F)CC2)C(C)C)cc1OC (centres unmarked) [Compound A1, reference compound]",MIC50,M. bovis BCG [1]; [14],87 µM
same,MIC90,M. bovis BCG [1]; [15],138 µM
same,MIC90,M. bovis BCG [1]; [16],138 µM
same,MIC99 Mtb,Mtb H37Rv [2],62.5 µM
"CSc1ccc2c(c1)N(CCC1CCCCN1C)c1ccccc1S2 (centres unmarked) [TDZ, thioridazine, reference compound]",NADH/NAD+ ratio,M. bovis BCG [3],higher ratios
same,MIC90,M. bovis BCG [1]; [15],30 µM
same,MIC90,M. bovis BCG [1]; [17],11 µg/mL
same,methylene blue decolorization (O2 uptake),"M. bovis BCG [4]; 80 μM, 30 μg/mL",No decolorization
"COc1ccc(CCN(C)CCCC(C#N)(c2ccc(OC)c(OC)c2)C2CCCCC2)cc1OC (centres unmarked) [Compound A2, reference compound]",MIC50,M. bovis BCG [1]; [14],36 µM
same,MIC90,M. bovis BCG [1]; [15],118 µM
same,MIC90,M. bovis BCG [1]; [16],118 µM
same,MIC99 Mtb,Mtb H37Rv [2],62.5 µM
COc1ccc(CCN(C)CCCC(C#N)(CCC2CCCCC2)c2ccc(OC)c(OC)c2)cc1OC (centres unmarked) [PhA1],MIC90,[5]; 7H9 broth (first value),109 µM
same,MIC50 Mab bolletii CCUG 50184-T,[5]; [18],97 µM
same,MIC50 Mab bolletii CCUG 50184-T,[5]; [19],22 µM
same,MIC90,[5]; camH broth (second value),61 µM
same,IC50,Vero E6,51 µM
same,MIC90,"Mab abscessus ATCC 19977; 7H9 broth (first value), read-out: MIC90 Mab abscessus ATCC 19977",115 µM
same,MIC50 Mab abscessus ATCC 19977,Mab abscessus ATCC 19977; [18],76 µM
same,MIC50 Mab abscessus ATCC 19977,Mab abscessus ATCC 19977; [19],25 µM
same,MIC90,"Mab abscessus ATCC 19977; camH broth (second value), read-out: MIC90 Mab abscessus ATCC 19977",54 µM
same,MIC90,[6]; 7H9 broth (first value),106 µM
same,MIC50 Mab massiliense CCUG 48898-T,[6]; [18],100 µM
same,MIC50 Mab massiliense CCUG 48898-T,[6]; [19],15 µM
same,MIC90,[6]; camH broth (second value),125 µM
same,IC50,HepG2,34 µM
same,CFUs above the detection limit,M. bovis BCG [7],10–100 times
same,MIC50,M. bovis BCG [1],12 µM
same,MIC50 BCG With Glycerol,M. bovis BCG [1],12 µM
same,MIC50 BCG Without Glycerol,M. bovis BCG [1],21 µM
same,MIC90 (Table S1),M. bovis BCG [1],25 µM
same,MIC50 Mtb H37Rv,Mtb H37Rv [8]; first value of cell MIC50/MIC90,19 µM
same,MIC90,"Mtb H37Rv [8]; second value of cell MIC50/MIC90, read-out: MIC90 Mtb H37Rv",43 µM
same,MBC99.9 (10^3-fold kill),M. bovis BCG [9],4 x MIC90
"CC[C@H]1OC(=O)[C@H](C)[C@@H](O[C@H]2C[C@@](C)(OC)[C@@H](O)[C@H](C)O2)[C@H](C)[C@@H](O[C@@H]2O[C@H](C)C[C@H](N(C)C)[C@H]2O)[C@](C)(OC)C[C@@H](C)C(=O)[C@H](C)[C@@H](O)[C@]1(C)O [CLR, clarithromycin, reference compound]",MIC90,"[5]; Mycobacteroides abscessus, CCUG50184, 7H9 broth (first value)",19 µM
same,MIC50,[5]; [20],8.8 µM
same,MIC50,[5]; [21],1 µM
same,MIC90,"[5]; Mycobacteroides abscessus, CCUG50184, camH broth (second value)",11 µM
same,MIC90,"Mab abscessus ATCC 19977; Mycobacteroides abscessus, ATCC19977, 7H9 broth (first value), read-out: MIC90 Mab abscessus ATCC 19977",0.5 µM
same,MIC50,Mab abscessus ATCC 19977; [20],0.2 µM
same,MIC50,Mab abscessus ATCC 19977; [21],0.15 µM
same,MIC90,"Mab abscessus ATCC 19977; Mycobacteroides abscessus, ATCC19977, camH broth (second value), read-out: MIC90 Mab abscessus ATCC 19977",0.4 µM
same,MIC90,"[6]; Mycobacteroides abscessus, CCUG48898, 7H9 broth (first value)",2 µM
same,MIC50,[6]; [20],0.5 µM
same,MIC50,[6]; [21],0.1 µM
same,MIC90,"[6]; Mycobacteroides abscessus, CCUG48898, camH broth (second value)",0.23 µM
same,MIC90,Mab complex,0.1 to 8.8 µM
same,MIC90,"Mab complex; range over subspecies, positive control",0.08 to 6.6 µg/mL
same,MIC50,"clinical isolates of Mab; Mab clinical isolate M9, 7H9 broth, read-out: MIC50 M9",0.1 µM
same,MIC50,"clinical isolates of Mab; Mab clinical isolate M111, 7H9 broth, read-out: MIC50 M111",0.08 µM
same,MIC50,"clinical isolates of Mab; Mab clinical isolate M232, 7H9 broth, read-out: MIC50 M232",0.27 µM
same,MIC50,"clinical isolates of Mab; Mab clinical isolate M337, 7H9 broth, read-out: MIC50 M337",0.15 µM
same,MIC50,"clinical isolates of Mab; Mab clinical isolate M404, 7H9 broth, read-out: MIC50 M404",0.1 µM
same,MIC50,"clinical isolates of Mab; Mab clinical isolate M422, 7H9 broth, read-out: MIC50 M422",0.22 µM
same,MIC50,"clinical isolates of Mab; Mab clinical isolate M506, 7H9 broth, read-out: MIC50 M506",0.09 µM
"NNC(=O)c1ccncc1 [INH, isoniazid, reference compound]",membrane permeabilization,M. bovis BCG [10],negligible permeabilization
same,formazan formation from MTS,M. bovis BCG [11],increased formazan formation
same,regrowth in time-kill curve,"M. bovis BCG [7]; 2xMIC90BCG, 21 days",uptick in CFUs was observed after 5 days
same,effect on ATP levels,M. bovis BCG [12],marked surge in ATP levels
same,MIC90 BCG,M. bovis BCG [1]; M. bovis BCG,0.4 µg/mL
same,MIC90,M. bovis BCG [1]; [15],3.4 µM
same,MIC90,M. bovis BCG [1]; [16],3.5 µM
same,MIC90,M. bovis BCG [1]; [17],0.45 µg/mL
same,methylene blue decolorization (O2 uptake),M. bovis BCG [4]; 4xMIC90BCG (1.6 μg/mL),Decolorization (active O2 uptake)
"COc1nc2ccc(Br)cc2cc1[C@@H](c1ccccc1)[C@@](O)(CCN(C)C)c1cccc2ccccc12 [BDQ, bedaquiline]",MIC90,"Mab abscessus ATCC 19977; Mycobacteroides abscessus, ATCC19977, Mab abscessus, read-out: MIC90 abscessus",0.37 µM and 0.21 µg/mL
same,oxygen consumption rate,M. bovis BCG [13],sharp increase in OCR
same,reduction in CFU,"M. bovis BCG [7]; BDQ alone 4x MIC90BCG (0.56 μg/mL), 28-day time point",10 fold
same,MIC50,M. bovis BCG [1]; [14],0.065 µM
same,MIC90,M. bovis BCG [1]; [15],0.25 µM
same,MIC50,"M. bovis BCG [1]; Mycobacterium tuberculosis variant bovis BCG, BCG, read-out: MIC50 BCG",0.036 µg/mL
same,MIC90,M. bovis BCG [1]; [17],0.14 µg/mL
same,bactericidal activity,Mab abscessus,none to be bactericidal

# — PMC12281142, “A potent phenylalkylamine disrupts mycobacterial membrane bioenergetics and augments bactericidal activity of bedaquiline” (iScience, 2025)
